Source: patent EP0106060A2, “Imidazole derivatives and salts thereof, their synthesis, and pharmaceutical formulations” (THE WELLCOME FOUNDATION LIMITED, priority 1982, dated 1984)
≈ marks a conversion by molar mass, not a printed value. Counter-ions that a name gives are not always drawn.

Columns and labels:
[1] = system: Thromboxane A2 Synthetase; experiment: Determination of thromboxane A2 synthetase inhibitory activity (lysed horse platelets, [1-14C]-arachidonic acid conversion, TLC/scintillation counting); format: biochemical; conditions: concentration of active compound required to reduce the enzyme activity by 50%; horse platelet lysate, 3 min at 37°C
Method: The active compound was dissolved in a suitable solvent at a concentration of 5 mg/ml, and 20 µl added to 0.8 ml of 100 mM Tris buffer (pH 7.5). The platelets from 5 ml of horse PRP were centrifuged and resuspended in 100µl of Tris buffer. After lysis by sonication or freeze thawing, the platelet suspension was added to the solution of active compound and equilibrated for 5 min at room temperature. Then 300 ng (50 nCi) of [1-^14C]-arachidonic acid, dissolved in 100 µl Tris buffer, was added and the mixture incubated for 3 min at 37°C. The reaction was stopped with 50 ul 2N HCl and the products extracted with 1.5 volumes ethyl acetate by whirling for 30 seconds. 1 ml saturated NaCl was added to the aqueous phase to prevent emulsion formation. […] The plate was developed in chloroform, methanol, acetic acid, water (90:8:1:0.8), dried and then visualised by autoradiography for 2-3 days. […] The concentration of active compound required to reduce the enzyme activity by 50% (ED50) was established.

[2] = system: Thromboxane A2 Synthetase; experiment: Duration of action of thromboxane A2 synthetase inhibitors in vivo (oral dosing, thromboxane A2 in serum of clotted blood by RIA); set-up: species or system N.Z. male rabbits; conditions: rabbit, period over which thromboxane A2 concentration is depressed relative to controls
Method: N.Z. male rabbits weighing 2.5 kg are anaesthetized with sodium pentobarbitone and chloralose and one carotoid artery is cannulated. Blood samples (lml) are taken for incubation; two as controls and one, adding 10 µg indomethacin, as a blank. After each sample is taken the cannula is flushed with saline. The active compound is then administered orally and further samples at half hour intervals for five to eight hours. The blood samples for the controls and the active compound are incubated in glass tubes for 45 minutes at 37°C to clot the blood. Indomethacin is added and the tubes centrifuged to separate the serum which is pipetted off for RIA analysis to determine the concentration of thromboxane A2. The period of time over which the inhibitor depressed the concentration of thromboxane A2 relative to the controls is then determined.

Structure (SMILES)	ED50 [1] [µg/mL]	duration of action ([2]; dose of 2 mg/kg)	duration of action ([2]; dose of 160 mg/kg)
CCOC(=O)/C=C/c1ccc(Cn2ccnc2)c(Cl)c1 [Example 2, Ethyl (E)-3-[3-chloro-4-(imidazol-1-ylmethyl)phenyl]prop-2-enoate]	0.5 (≈ 1.72 µM)	–	–
O=C(O)CCc1ccc(Cn2ccnc2)c(Cl)c1 [Example 4, 3-[3-Chloro-4-(imidazol-1-ylmethyl)phenyl]proeanoic acid hydrochloride]	0.08	–	–
Cl.O=C(O)/C=C/c1ccc(Cn2ccnc2)c(Cl)c1 [Example 3, (E)-3-[3-Chloro-4-(imidazol-1-ylmethyl)phenyl] prop-2-enoic acid hydro chloride]	0.05	at least 7 hours	–
Cl.O=C(O)c1ccc(Cn2ccnc2)c(Cl)c1 [Example 1, 1-(4-Carboxy-2-chlorobenzyl)imidazole hydrochloride]	6.6	–	at least 5 hours
Cl.O.O=C(O)C=Cc1ccc(Cn2ccnc2)c(Br)c1 [Example 6, 3-[3-Bromo-4-(imidazol-1-ylmethyl)phenyl]prop-2-enoic acid hydrochloride hydrate]	0.015	–	–
O=C(O)c1ccc(C=CCn2ccnc2)cc1Cl [Example 10, 1-[3-(4-Carboxy-3-chlorophenyl)prop-2-enyl]imidazole hydrochloride hemihydrate]	0.35	–	–
